Experimental data: publication PMC8876412 (Viruses, 2022)
Entries after “also recorded” stand apart in the source; their conditions may differ.

Assays:
[1] = system: pp28-luciferase recombinant Towne CMV; assay: microbe, parasite or virus in culture; settings: Human betaherpesvirus 5, read-out: EC50 pp28-Luciferase
[2] = system: CMV TB40; assay: microbe, parasite or virus in culture; format: cell-based, human cytomegalovirus; settings: Human betaherpesvirus 5, 168 h, read-out: EC50 TB40
[3] = MTT toxicity assay in non-infected cells; format: cell-based; settings: human, non-infected HFF cells, non-infected HFFs
[4] = system: CMV TB40 (US17 DNA); assay: Viral DNA in cells and supernatants by US17 real-time PCR; format: cell-based, human cytomegalovirus; settings: for cellular viral loads (viral DNA replication in cells): 72, 96, 120 h
[5] = system: CMV TB40; parameters: method as in ref 24 = [24]; settings: cited from earlier work
[6] = system: MCMV Smith strain; parameters: method as in ref 24 = [24]; settings: cited from earlier work
[7] = system: HSV1; parameters: method as in ref 24 = [24]; settings: cited from earlier work
[8] = system: HSV2; parameters: method as in ref 24 = [24]; settings: cited from earlier work
[9] = system: MCMV Smith strain; assay: microbe, parasite or virus in culture; format: cell-based; settings: Mouse cytomegalovirus, Fibroblast, read-out: EC50 MCMV
[10] = system: CMV TB40; assay: Virus yield: supernatants of TB40-infected HFFs titered by plaque assay; format: cell-based, human cytomegalovirus; settings: supernatants at 72, 96, 120 h; for reduction in viral titer (virus yield) of supernatants: 3 µM
[11] = system: pp28-luciferase recombinant Towne CMV; settings: CC50 in non-infected HFFs versus anti-CMV EC50
[12] = system: CMV; parameters: method as in ref 23 = [23]; settings: cited from earlier work
[13] = system: HSV1; assay: HSV1 plaque assay in Vero cells; format: cell-based, Human Herpesvirus 1; settings: 5 µM, positive control
[14] = system: HSV2; assay: HSV2 plaque assay in Vero cells; format: cell-based, Human Herpesvirus 2; settings: 5 µM, positive control
[15] = system: Western Equine Encephalitis Virus (WEEV); settings: cultured human neuronal cells; cited from earlier work

CCOC(=O)C1CCN(C(=O)c2cccn2Cc2ccc(Cl)cc2)CC1 [Compound 14]
EC50 [1]: > 30000 nM

CC(C)NC(=O)C1CCN(C(=O)c2cc3sccc3n2Cc2ccc(Cl)cc2)CC1 [Compound 1]
EC50 [2]: 1990 ± 150 nM | CC50 at 72 h [3]: > 200000 nM | cellular viral loads (viral DNA replication in cells) ([4]; 3 µM): did not reduce | in vitro activity against TB40 [5]: low µM concentrations | in vitro activity against mouse CMV [6]: low µM concentrations | activity against HSV1 [7]: no activity | activity against HSV2 [8]: no activity | EC50 [1]: 1700 ± 600 nM

O=C(NCCc1ccncc1)C1CCN(C(=O)c2cccn2Cc2ccc(Cl)cc2)CC1 [Compound 7]
EC50 [2]: 550 ± 60 nM | CC50 at 72 h [3]: > 500000 nM | EC50 [9]: 600 ± 340 nM | reduction in viral titer (virus yield) of supernatants [10]: reduced virus yield at all late time points; also recorded: higher than with 1 and overall similar to GCV | viral loads in supernatants ([4]; 3 µM, 72, 96, 120 hpi): decreased the viral loads in supernatants at all time points | cellular viral loads (viral DNA replication in cells) ([4]; 3 µM): did not reduce | selectivity index [11]: > 1500 | EC50 [1]: 210 ± 60 nM

CC(C)NC(=O)C1CCN(C(=O)c2cccn2Cc2ccc(Cl)cc2)CC1 [Compound 4]
EC50 [1]: > 30000 nM

O=C(O)C1CCN(C(=O)c2cccn2Cc2ccc(Cl)cc2)CC1 [Compound 13]
EC50 [1]: > 30000 nM

O=C(NCc1ccncc1)C1CCN(C(=O)c2cccn2Cc2ccc(Cl)cc2)CC1 [Compound 12]
EC50 [1]: > 30000 nM

O=C(NCc1ccccn1)C1CCN(C(=O)c2cccn2Cc2ccc(Cl)cc2)CC1 [Compound 10]
EC50 [1]: > 30000 nM

COc1cccc(N2CCN(C3=Nc4c(F)cccc4[C@H](CC(=O)O)N3c3cc(C(F)(F)F)ccc3OC)CC2)c1 [Letermovir, reference compound]
reduction in viral progeny of supernatants ([10]; 10 nM): strongest reduction in viral progeny at all time points | viral loads in supernatants ([4]; 10 nM): reduced viral loads in supernatants

O=C(NCCc1ccncc1)C1CCN(C(=O)c2cc3sccc3n2Cc2ccc(Cl)cc2)CC1 [Compound 9]
EC50 [2]: 350 ± 70 nM | CC50 at 72 h [3]: > 500000 nM | selectivity index [11]: > 1500 | EC50 [1]: 300 ± 50 nM

O=C(NCc1cccnc1)C1CCN(C(=O)c2cccn2Cc2ccc(Cl)cc2)CC1 [Compound 11]
EC50 [1]: > 30000 nM

CC(C)NC(=O)C1CCN(C(=O)c2cc3ccccc3n2Cc2ccc(Cl)cc2)CC1 [Compound 3]
EC50 [1]: > 30000 nM

CC(C)NC(=O)C1CCCN(C(=O)c2cc3sccc3n2Cc2ccc(Cl)cc2)C1 (centres unmarked) [Compound 2]
EC50 [1]: > 30000 nM

CC(C)Nc1nc2cc(Cl)c(Cl)cc2n1[C@H]1O[C@@H](CO)[C@H](O)[C@@H]1O [maribavir, Maribavir]
response ([12]; across all doses): ~ 65% | CMV recurrences ([12]; of the participants): 35%

O=C(NCCc1ccncc1)C1CCN(C(=O)c2cc3ccccc3n2Cc2ccc(Cl)cc2)CC1 [Compound 8]
EC50 [2]: 420 ± 70 nM | CC50 at 72 h [3]: > 500000 nM | EC50 [9]: 730 ± 320 nM | reduction in viral titer (virus yield) of supernatants [10]: higher than with 1 and overall similar to GCV | viral loads in supernatants ([4]; 3 µM, 72, 96, 120 hpi): decreased viral loads at 120 hpi | cellular viral loads (viral DNA replication in cells) ([4]; 3 µM): did not reduce | selectivity index [11]: > 1500 | EC50 [1]: 280 ± 60 nM

Nc1nc(O)c2ncn(COC(CO)CO)c2n1 [GCV, ganciclovir, reference compound]
inhibition of HSV1 [13]: complete inhibition | inhibition of HSV2 [14]: complete inhibition | viral DNA in supernatants ([4]; 5 µM): reduced DNA replication | viral DNA replication in cells ([4]; 5 µM): reduced DNA replication

O=C(NCCc1cccnc1)C1CCN(C(=O)c2cccn2Cc2ccc(Cl)cc2)CC1 [Compound 6]
EC50 [1]: > 30000 nM

O=C(NCCc1ccncc1)C1CCN(C(=O)c2cc3ccccc3n2Cc2ccc(Cl)cc2)CC1 [CCG205432]
inhibition of infectious virus [15]: inhibited the infectious virus

O=C(NCCc1ccccn1)C1CCN(C(=O)c2cccn2Cc2ccc(Cl)cc2)CC1 [Compound 5]
EC50 [1]: > 30000 nM
